According to patent US20220281848A1, “PYRAZOLE-SUBSTITUTED PYRROLIDINONES AS HERBICIDES” (FMC Corporation, priority 2019, published 2022):

Experiments:
Type in all cases: in vivo
corn (Zea mays, ZEAMX) = test: Test A post-emergence, corn; conditions: after 13 d
Summary of the method: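 Visual damage at 13 d after treatment, rated from 0 (no damage) to 100 (total damage). Eight-day-old pot-grown plants had been sprayed with 15.625, 62.5 or 250 g/ha of compound in aqueous acetone (50:50) containing 0.5% Tween 20.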

maize = test: Test D pre-emergence, maize seed treated with a herbicide safener; conditions: ZEAMX, preemergent, 20 DAA
Summary of the method: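 Seeds treated with herbicide safener; sown in soil; glasshouse, 16 h light, 65% humidity. Sprayed day 1 (pre) or ~day 12 (post). Spray in 0.2% v/v adjuvant. Scored 0–100 damage: 20 DAA pre, 15 d post.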

[1] = tested on: barnyardgrass (Echinochloa crus-galli, ECHCG); test: Test A pre-emergence, barnyardgrass; conditions: after 13 d
Summary of the method: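 Seeds were sown in standard soil in pots, kept one day in a glasshouse (24/16° C. day/night, 14 h light, 65% humidity), then sprayed with compound in acetone/water (50:50) containing 0.5% Tween 20 at 15.625, 62.5 or 250 g/ha. Plants grew on under the same conditions, watered twice daily, and damage was scored after 13 d (0 = none, 100 = total).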

plants = test: Test D post-emergence, other plants of Tables D2 and D4; conditions: "Cereals" Postemergent, evaluated after 15 d
Summary of the method: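 Damage was rated visually from 0 (none) to 100 (total), at 20 DAA for pre-emergence and 15 d for post-emergence. Plants grew from safener-treated seed in a glasshouse at 24/18° C. or 20/16° C. day/night, 65% humidity, watered twice daily.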

CN1CC(c2cc(C(F)(F)F)n(C)n2)C(C(=O)Nc2cccc(F)n2)C1=O (racemic) [Compound 24]
damage to plant (100=total damage; 0=no damage) ZEAMX (corn (Zea mays, ZEAMX); Post-Emergence at 15.625 g/ha): 0 | damage to plant (100=total damage; 0=no damage) ZEAMX (corn (Zea mays, ZEAMX); Post-Emergence at 62.5 g/ha): 10 | damage to plant (100=total damage; 0=no damage) ZEAMX (corn (Zea mays, ZEAMX); Post-Emergence at 250 g/ha): 40 | damage to plant (100=total damage to plant; 0=no damage to plant), ZEAMX (maize; rate 15): 0 | damage to plant (100=total damage to plant; 0=no damage to plant), ZEAMX (maize; rate 30): 0 | damage to plant (100=total damage to plant; 0=no damage to plant), ZEAMX (maize; rate 60): 0 | damage to plant (100=total damage to plant; 0=no damage to plant), ZEAMX (maize; rate 130): 0 | damage to plant (100=total damage to plant; 0=no damage to plant), ZEAMX (maize; rate 250): 0 | damage to plant (100=total damage to plant; 0=no damage to plant), ZEAMX (maize; rate 500): 0 | damage to plant (100=total damage; 0=no damage) ECHCG ([1]; Pre-Emergence at 15.625 g/ha): 90 | damage to plant (100=total damage; 0=no damage) ECHCG ([1]; Pre-Emergence at 62.5 g/ha): 100 | damage to plant (100=total damage; 0=no damage) ECHCG ([1]; Pre-Emergence at 250 g/ha): 100 | ALOMY damage rating (100=total damage to plant; 0=no damage to plant) (plants; Rates 130): 0 | ALOMY damage rating (100=total damage to plant; 0=no damage to plant) (plants; Rates 250): 0 | ALOMY damage rating (100=total damage to plant; 0=no damage to plant) (plants; Rates 500): 0 | AVEFA damage rating (100=total damage to plant; 0=no damage to plant) (plants; Rates 130): 0 | AVEFA damage rating (100=total damage to plant; 0=no damage to plant) (plants; Rates 250): 0 | AVEFA damage rating (100=total damage to plant; 0=no damage to plant) (plants; Rates 500): 0 | BEAVA damage rating (100=total damage to plant; 0=no damage to plant) (plants; Rates 130): 0 | BEAVA damage rating (100=total damage to plant; 0=no damage to plant) (plants; Rates 250): 0 | BEAVA damage rating (100=total damage to plant; 0=no damage to plant) (plants; Rates 500): 0 | BROTE damage rating (100=total damage to plant; 0=no damage to plant) (plants; Rates 130): 0 | BROTE damage rating (100=total damage to plant; 0=no damage to plant) (plants; Rates 250): 0 | BROTE damage rating (100=total damage to plant; 0=no damage to plant) (plants; Rates 500): 0 | BRSNN damage rating (100=total damage to plant; 0=no damage to plant) (plants; Rates 130): 0 | BRSNN damage rating (100=total damage to plant; 0=no damage to plant) (plants; Rates 250): 0 | BRSNN damage rating (100=total damage to plant; 0=no damage to plant) (plants; Rates 500): 0 | CHEAL damage rating (100=total damage to plant; 0=no damage to plant) (plants; Rates 130): 0 | CHEAL damage rating (100=total damage to plant; 0=no damage to plant) (plants; Rates 250): 10 | CHEAL damage rating (100=total damage to plant; 0=no damage to plant) (plants; Rates 500): 40 | GALAP damage rating (100=total damage to plant; 0=no damage to plant) (plants; Rates 130): 0 | GALAP damage rating (100=total damage to plant; 0=no damage to plant) (plants; Rates 250): 0 | GALAP damage rating (100=total damage to plant; 0=no damage to plant) (plants; Rates 500): 20 | HORVW damage rating (100=total damage to plant; 0=no damage to plant) (plants; Rates 130): 0 | HORVW damage rating (100=total damage to plant; 0=no damage to plant) (plants; Rates 250): 0 | HORVW damage rating (100=total damage to plant; 0=no damage to plant) (plants; Rates 500): 0 | KCHSC damage rating (100=total damage to plant; 0=no damage to plant) (plants; Rates 130): 0 | KCHSC damage rating (100=total damage to plant; 0=no damage to plant) (plants; Rates 250): 0 | KCHSC damage rating (100=total damage to plant; 0=no damage to plant) (plants; Rates 500): 0 | LOLPE damage rating (100=total damage to plant; 0=no damage to plant) (plants; Rates 130): 0 | LOLPE damage rating (100=total damage to plant; 0=no damage to plant) (plants; Rates 250): 0 | LOLPE damage rating (100=total damage to plant; 0=no damage to plant) (plants; Rates 500): 0 | POAAN damage rating (100=total damage to plant; 0=no damage to plant) (plants; Rates 130): 0 | POAAN damage rating (100=total damage to plant; 0=no damage to plant) (plants; Rates 250): 0 | POAAN damage rating (100=total damage to plant; 0=no damage to plant) (plants; Rates 500): 0 | POLCO damage rating (100=total damage to plant; 0=no damage to plant) (plants; Rates 130): 0 | POLCO damage rating (100=total damage to plant; 0=no damage to plant) (plants; Rates 250): 0 | POLCO damage rating (100=total damage to plant; 0=no damage to plant) (plants; Rates 500): 0 | SINAR damage rating (100=total damage to plant; 0=no damage to plant) (plants; Rates 130): 0 | SINAR damage rating (100=total damage to plant; 0=no damage to plant) (plants; Rates 250): 0 | SINAR damage rating (100=total damage to plant; 0=no damage to plant) (plants; Rates 500): 0 | STEME damage rating (100=total damage to plant; 0=no damage to plant) (plants; STEME, Rates 130): 0
